Results: patent publication US20260373266A1, “PROTEIN DEGRADERS AND USES THEREOF” (KYMERA THERAPEUTICS, INC., priority 2022, published 2026)

Target: T1, DCAF1 WD40 domain (residues 1077-1390) (Homo sapiens, UniProt Q9Y4B6)
T1 construct: DCAF1 WD40 domain (residues 1077-1390)
Assay: DCAF1 binding assay by SPR (Biacore 8K+), DCAF1-3 KD
Settings: 25 °C, read-out: DCAF1-3 SPR (KD)

T1 sequence (Q9Y4B6 1077-1390): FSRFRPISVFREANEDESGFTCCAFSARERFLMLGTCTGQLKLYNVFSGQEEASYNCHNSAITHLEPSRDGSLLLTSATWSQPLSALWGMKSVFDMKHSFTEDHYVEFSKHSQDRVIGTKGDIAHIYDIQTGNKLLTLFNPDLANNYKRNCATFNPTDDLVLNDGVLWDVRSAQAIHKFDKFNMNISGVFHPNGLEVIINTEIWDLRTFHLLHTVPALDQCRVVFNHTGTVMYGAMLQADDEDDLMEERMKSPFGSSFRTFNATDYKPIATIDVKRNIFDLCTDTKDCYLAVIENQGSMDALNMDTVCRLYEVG

SMILES	Kd
NC(=O)CCc1ccc(N2CCC[C@@H](Nc3cc(N4CCOCC4)ccn3)C2)cc1 [I-869]	10 to 100 µM
COCCN1CCN(c2ccnc(N[C@@H]3CCCN(c4cccc(F)c4)C3)c2)CC1 [I-61]	10 to 100 µM
c1cc(N2CCCCC2)cc(N[C@@H]2CCC[C@@H](C3CCCCC3)C2)n1 [I-752]	10 to 100 µM
COCCOCC[C@@H]1CN(c2cc(N3CCCCC3)ccn2)[C@H]2CCCN(c3cccc(F)c3)[C@@H]12 [I-934]	< 10 µM
C=CC(=O)NC1CCN(c2ccnc(N[C@@H]3CCCN(c4cccc(F)c4)C3)c2)C1 (stereo partly drawn) [I-456]	> 200 µM
Cc1ccccc1[C@H](CC(N)=O)NC(=O)c1cn[nH]c1-c1ccccc1F [I-105]	< 10 µM
OC[C@@]1(Nc2cc(N3CCOCC3)ccn2)CCCN(c2cccc(F)c2)C1 [I-276]	> 200 µM
Cc1cccc(N2CCC[C@@H](Nc3cc(N4CCOCC4)ncn3)C2)c1 [I-5]	> 200 µM
NC(=O)C[C@@](NC(=O)c1c[nH]nc1-c1ccccc1F)(C(=O)O)c1cccc(Cl)c1 [I-294]	> 200 µM
NC[C@@H]1C[C@@H](Nc2cc(N3CCCCC3)ccn2)CN(c2cccc(F)c2)C1 [I-1040]	10 to 100 µM
Cc1c(F)ccc(F)c1-c1c(C(=O)N[C@@H](CC(N)=O)c2cccc(Cl)c2)csc1C(=O)c1ccccc1 [I-944]	< 10 µM
c1ccc2c(N3CCC[C@@H](Nc4nccc(N5CCOCC5)n4)C3)cncc2c1 [I-54]	10 to 100 µM
COCCOCCC1CN(c2cc(N3CCOCC3)ccn2)[C@@H]2CCCN(c3cccc(F)c3)[C@H]12 (stereo partly drawn) [I-828]	> 200 µM
Fc1cccc(N2CCCC(Nc3nccc(N4CCOCC4)n3)C2)c1 (stereo not drawn) [I-22]	> 200 µM
O=C1Cc2cc(N3CCC[C@@H](Nc4cc(N5CCOCC5)ccn4)C3)ncc2N1 [I-425]	> 200 µM
NCCCc1ccc(N2CCC[C@@H](Nc3cc(N4CCOCC4)ccn3)C2)cc1 [I-856]	10 to 100 µM
Fc1cccc(N2CCC[C@@H](Cc3cc(N4CCOCC4)ccn3)C2)c1 [I-87]	> 200 µM
O=C(N[C@@H](CC(=O)N1CCNCC1)c1cccc(Cl)c1)c1cn[nH]c1-c1ccccc1F [I-787]	< 10 µM
Cc1cccc([C@H](CC(N)=O)NC(=O)c2cn[nH]c2-c2ccccc2F)n1 [I-143]	> 200 µM
N#CCCN(c1cc(N2CCOCC2)ccn1)[C@@H]1CCCN(c2cccc(F)c2)C1 [I-289]	> 200 µM

SMILES	Kd
NCCNCc1cc(N[C@@H]2CCCN(c3cccc(F)c3)C2)cc(N2CCCCC2)c1 [I-947]	100 to 200 µM
CC(C)n1ncc(C(=O)N[C@@H](CC(N)=O)c2cccc(Cl)c2)c1-c1ccccc1F [I-134]	100 to 200 µM
c1cnc2c(N3CCC[C@@H](Nc4cc(N5CCOCC5)ccn4)C3)cnn2c1 [I-417]	> 200 µM
NCCNc1ccc(C2CCCCC2)cc1N[C@@H]1CCCN(c2cccc(F)c2)C1 [I-979]	10 to 100 µM
c1cnc2ccc(N3CCC[C@@H](Nc4nccc(N5CCOCC5)n4)C3)cc2c1 [I-56]	> 200 µM
C=CC(=O)NCCCC1CCN(c2ccnc(N3CC[C@@H]4[C@H]3CCCN4c3cccc(F)c3)c2)CC1 [I-705]	100 to 200 µM
NCCCCCCCCCCCCCCCCCCCCC(=O)c1[nH]cc(C(=O)N[C@@H](CC(N)=O)c2cccc(Cl)c2)c1-c1ccccc1F [I-670]	> 200 µM
Cc1cccc(-c2[nH]ncc2C(=O)N[C@@H](CC(N)=O)c2cccc(Cl)c2)c1 [I-102]	10 to 100 µM
Cc1cccc(-c2[nH]ncc2C(=O)N[C@@H](CC(N)=O)c2cccc(Cl)c2)c1F [I-515]	10 to 100 µM
NC(=O)C[C@H](NC(=O)c1cnn(C(=O)c2ccncn2)c1-c1ccccc1F)c1cccc(Cl)c1 [I-174]	> 200 µM
Cc1sc2c(c1C)C(c1ccc(Cl)cc1)=N[C@@H](CC(=O)NCCOCCOCCOCCOCCOCC(=O)c1c(-c3c(F)ccc(F)c3C)c(C(=O)N[C@@H](CC(N)=O)c3cccc(Cl)c3)cn1C)c1nnc(C)n1-2 [I-912]	< 10 µM
c1ccc2c(N3CCC[C@@H](Nc4cc(N5CCOCC5)ccn4)C3)nsc2c1 [I-112]	10 to 100 µM
Fc1cccc(N2CCCC3(CNc4cnc(N5CCCCC5)cc4N3)C2)c1 (stereo not drawn) [I-993]	10 to 100 µM
Oc1cc(N[C@@H]2CCCN(c3cccc(F)c3)C2)cc(N2CCOCC2)c1 [I-564]	10 to 100 µM
Fc1cccc(N2CCC[C@@H](Nc3ncc(N4CCOCC4)o3)C2)c1 [I-327]	> 200 µM
Cc1cccc(F)c1-c1[nH]ncc1C(=O)N[C@@H](CC(N)=O)c1cc(F)cc(Cl)c1 [I-748]	10 to 100 µM
NCCc1ccc(N2CCC[C@@H](Nc3cc(N4CCOCC4)ccn3)C2)cc1 [I-871]	> 200 µM
NC(=O)[C@@H]1CC[C@H](Nc2cc(N3CCCCC3)ccn2)CN1c1cccc(F)c1 [I-1027]	10 to 100 µM
NC(=O)OCc1cccc(N2CCC[C@@H]3[C@H]2CCN3c2cc(N3CCCCC3)ccn2)c1 [I-955]	10 to 100 µM
c1ccc2c(N3CCC[C@@H](Nc4cc(N5CCOCC5)ccn4)C3)nncc2c1 [I-65]	100 to 200 µM

SMILES	Kd
Fc1cccc(N2CCC[C@H]3[C@@H]2CCN3c2cc(N3CCCCCC3)ccn2)c1 [I-636]	< 10 µM
CC(NC(=O)c1cn[nH]c1-c1cccc(Cl)c1)c1ccc[nH]1 (stereo not drawn) [I-836]	> 200 µM
NCC(=O)NCc1ccc(N2CCCCC2)cc1N[C@@H]1CCCN(c2cccc(F)c2)C1 [I-982]	10 to 100 µM
N#Cc1nccc(N2CCC[C@@H](Nc3cc(N4CCOCC4)ccn3)C2)n1 [I-414]	> 200 µM
Fc1cccc(N2CCC[C@@H](Nc3cc([C@H]4CCCCN4)ccn3)C2)c1 [I-126]	> 200 µM
C[C@H]1CCCCN1c1ccnc(N2CC[C@@H]3[C@H]2CCCN3c2cccc(F)c2)c1 [I-643]	< 10 µM
Clc1cccc(N2CCC[C@H]3[C@@H]2CCN3c2cc(N3CC4CC(C4)C3)ccn2)c1 [I-717]	< 10 µM
Oc1ccc(F)cc1N1CCC[C@H]2[C@@H]1CCN2c1cc(N2CCCCC2)ccn1 [I-813]	10 to 100 µM
N#Cc1ccccc1[C@H](CC(N)=O)NC(=O)c1cn[nH]c1-c1ccccc1F [I-342]	10 to 100 µM
Cc1sc2c(c1C)C(c1ccc(Cl)cc1)=N[C@@H](CC(=O)NCCOCCOCCOCCOCCOCCn1ncc(C(=O)N[C@@H](CC(N)=O)c3cccc(Cl)c3)c1-c1ccccc1F)c1nnc(C)n1-2 [I-488]	10 to 100 µM
c1cc(N2CCC[C@@H](Nc3nccc(N4CCOCC4)n3)C2)c2ccncc2c1 [I-55]	100 to 200 µM
OCCc1ccc(N2CCC[C@@H](Nc3cc(N4CCOCC4)ccn3)C2)nc1 [I-691]	10 to 100 µM
Cc1c(F)ccc(F)c1-c1c(C(=O)N[C@@H](CC(=O)N2CC[C@H](O)C2)c2cccc(Cl)c2)cn(C)c1C#N [I-1004]	< 10 µM
NC(=O)C[C@@]1(NC(=O)c2c[nH]nc2-c2ccccc2F)CCc2cc(Cl)ccc21 [I-242]	> 200 µM
Nc1cnc(N2CCCCC2)nc1N[C@@H]1CCCN(c2cccc(F)c2)C1 [I-1001]	10 to 100 µM
C=CC(=O)N(CCCCN1CCN(c2ccnc(N[C@@H]3CCCN(c4cccc(F)c4)C3)c2)CC1)CCOCCOCCNC(=O)C[C@@H]1N=C(c2ccc(Cl)cc2)c2c(sc(C)c2C)-n2c(C)nnc21 [I-904]	10 to 100 µM
COc1ccc(N2CCC[C@@H](Nc3cncc(N4CCOCC4)c3)C2)cc1 [I-551]	> 200 µM
COc1ccc(F)cc1N1CCC[C@@H]2[C@H]1CCN2c1cc(N2CCCCC2)ccn1 [I-796]	10 to 100 µM
Cc1ccc(CCCOCCOCCOCCOCCOCCN)c(F)c1-c1c(C(=O)N[C@@H](CC(N)=O)c2cccc(Cl)c2)c[nH]c1C#N [I-978]	< 10 µM
OCCCCCCCCC1CCN(c2ccnc(N3CC[C@@H]4[C@H]3CCCN4c3cccc(F)c3)c2)CC1 [I-977]	10 to 100 µM
